# In ChEMBL document CHEMBL1129671, “Substituted (pyrroloamino)pyridines: potential agents for the treatment of Alzheimer's disease” (J Med Chem, 1996):
# What was measured:
# [1] = target: T1, Adrenergic receptor alpha-1 (Rattus norvegicus, UniProt P15823+P23944+P43140); assay: Compound was tested for inhibition of [3H]WB-4101 against Alpha-1 adrenergic receptor from rat whole brain membranes using in vitro adrenergic receptor binding assay.; assay type: cell membranes, Membrane
# T1 sequence (P15823 whole entry): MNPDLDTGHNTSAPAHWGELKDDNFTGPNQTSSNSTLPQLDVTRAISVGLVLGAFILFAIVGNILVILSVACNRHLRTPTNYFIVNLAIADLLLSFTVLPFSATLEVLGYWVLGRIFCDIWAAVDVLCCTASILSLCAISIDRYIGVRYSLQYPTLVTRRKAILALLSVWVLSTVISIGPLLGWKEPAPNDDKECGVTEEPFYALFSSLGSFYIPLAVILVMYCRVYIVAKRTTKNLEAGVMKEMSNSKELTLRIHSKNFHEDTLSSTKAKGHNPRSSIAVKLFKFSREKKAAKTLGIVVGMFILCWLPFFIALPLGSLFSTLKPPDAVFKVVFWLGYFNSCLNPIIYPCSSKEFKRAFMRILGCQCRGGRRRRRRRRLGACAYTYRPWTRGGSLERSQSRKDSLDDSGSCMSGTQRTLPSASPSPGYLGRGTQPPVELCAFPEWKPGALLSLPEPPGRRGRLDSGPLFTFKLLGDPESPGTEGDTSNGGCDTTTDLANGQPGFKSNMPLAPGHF
# T1 sequence (P23944 whole entry): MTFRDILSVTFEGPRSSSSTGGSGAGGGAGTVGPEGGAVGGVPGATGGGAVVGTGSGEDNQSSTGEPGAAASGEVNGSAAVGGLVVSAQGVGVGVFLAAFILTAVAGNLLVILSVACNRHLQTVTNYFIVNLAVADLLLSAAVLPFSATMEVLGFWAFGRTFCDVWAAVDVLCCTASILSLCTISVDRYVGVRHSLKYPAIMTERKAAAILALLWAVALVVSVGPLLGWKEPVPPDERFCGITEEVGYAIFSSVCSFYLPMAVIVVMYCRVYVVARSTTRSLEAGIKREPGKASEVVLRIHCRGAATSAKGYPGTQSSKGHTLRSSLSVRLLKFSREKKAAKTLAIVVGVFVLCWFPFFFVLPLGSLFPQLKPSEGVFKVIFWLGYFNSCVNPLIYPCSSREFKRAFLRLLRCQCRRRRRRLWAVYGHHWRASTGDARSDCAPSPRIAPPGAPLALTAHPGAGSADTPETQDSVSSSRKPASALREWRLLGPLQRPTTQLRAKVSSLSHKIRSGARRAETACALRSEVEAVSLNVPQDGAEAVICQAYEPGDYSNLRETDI
# T1 sequence (P43140 whole entry): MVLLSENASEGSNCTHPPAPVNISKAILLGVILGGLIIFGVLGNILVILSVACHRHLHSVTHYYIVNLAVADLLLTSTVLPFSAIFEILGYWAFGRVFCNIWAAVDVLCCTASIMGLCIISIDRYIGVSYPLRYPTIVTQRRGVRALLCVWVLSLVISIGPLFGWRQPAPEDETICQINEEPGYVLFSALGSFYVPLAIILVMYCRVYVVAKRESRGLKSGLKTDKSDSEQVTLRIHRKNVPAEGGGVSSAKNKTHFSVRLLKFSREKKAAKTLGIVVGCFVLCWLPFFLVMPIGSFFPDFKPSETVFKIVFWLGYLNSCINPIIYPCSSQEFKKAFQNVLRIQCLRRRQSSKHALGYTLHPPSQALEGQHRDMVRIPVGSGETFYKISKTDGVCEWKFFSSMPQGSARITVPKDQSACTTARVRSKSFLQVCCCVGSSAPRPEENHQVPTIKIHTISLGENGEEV
# [2] = target: Muscarinic acetylcholine receptor; assay: Inhibition of radioligand [3H]QNB binding (competitive inhibition) to muscarinic acetylcholine receptor in the rat forebrain in the absence of zinc
# Rattus norvegicus = species on record: Rattus norvegicus; assay: Compound was tested for inhibition of [3H]norepinephrine against rat whole brain using in vitro biogenic amine uptake assay using rat brain synaptosomes.; assay type: functional
# Mus musculus = assay: Antagonistic activity against scopolamine-induced behavioral deficits in mice by subcutaneous administration at a concentration of 0.63 mg/kg; assay type: functional
# [3] = target: T2, Adrenergic receptor alpha-2 (Rattus norvegicus, UniProt P22086+P19328+P22909); assay: Compound was tested for inhibition of [3H]yohimbine against Alpha-2 adrenergic receptor from rat cortical membranes using in vitro adrenergic receptor binding assay.; assay type: cell membranes, Membrane
# T2 sequence (P22086 whole entry): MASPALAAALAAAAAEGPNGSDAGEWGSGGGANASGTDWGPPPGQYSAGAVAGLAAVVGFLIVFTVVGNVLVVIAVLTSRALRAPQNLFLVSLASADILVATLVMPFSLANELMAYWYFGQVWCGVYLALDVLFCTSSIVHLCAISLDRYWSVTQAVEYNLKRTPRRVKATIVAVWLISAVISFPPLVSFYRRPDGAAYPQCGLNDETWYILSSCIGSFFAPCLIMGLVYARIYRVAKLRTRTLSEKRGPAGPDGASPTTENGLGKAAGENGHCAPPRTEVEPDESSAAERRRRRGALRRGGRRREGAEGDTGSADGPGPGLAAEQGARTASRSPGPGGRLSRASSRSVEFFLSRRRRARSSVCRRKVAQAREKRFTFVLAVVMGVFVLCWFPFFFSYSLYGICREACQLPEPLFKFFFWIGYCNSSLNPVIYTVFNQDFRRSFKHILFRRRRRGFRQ
# T2 sequence (P19328 whole entry): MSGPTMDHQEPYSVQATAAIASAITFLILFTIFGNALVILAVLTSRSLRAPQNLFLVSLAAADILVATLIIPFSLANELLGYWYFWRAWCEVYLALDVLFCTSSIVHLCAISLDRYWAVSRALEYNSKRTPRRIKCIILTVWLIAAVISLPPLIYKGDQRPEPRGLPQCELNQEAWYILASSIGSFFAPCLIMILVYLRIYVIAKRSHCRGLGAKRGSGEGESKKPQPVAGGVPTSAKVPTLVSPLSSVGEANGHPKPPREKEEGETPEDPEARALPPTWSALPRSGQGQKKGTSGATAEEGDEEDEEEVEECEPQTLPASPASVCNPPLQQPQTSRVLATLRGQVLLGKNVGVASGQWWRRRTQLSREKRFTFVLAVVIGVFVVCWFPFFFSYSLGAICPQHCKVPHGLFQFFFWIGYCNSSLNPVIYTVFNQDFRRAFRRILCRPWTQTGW
# T2 sequence (P22909 whole entry): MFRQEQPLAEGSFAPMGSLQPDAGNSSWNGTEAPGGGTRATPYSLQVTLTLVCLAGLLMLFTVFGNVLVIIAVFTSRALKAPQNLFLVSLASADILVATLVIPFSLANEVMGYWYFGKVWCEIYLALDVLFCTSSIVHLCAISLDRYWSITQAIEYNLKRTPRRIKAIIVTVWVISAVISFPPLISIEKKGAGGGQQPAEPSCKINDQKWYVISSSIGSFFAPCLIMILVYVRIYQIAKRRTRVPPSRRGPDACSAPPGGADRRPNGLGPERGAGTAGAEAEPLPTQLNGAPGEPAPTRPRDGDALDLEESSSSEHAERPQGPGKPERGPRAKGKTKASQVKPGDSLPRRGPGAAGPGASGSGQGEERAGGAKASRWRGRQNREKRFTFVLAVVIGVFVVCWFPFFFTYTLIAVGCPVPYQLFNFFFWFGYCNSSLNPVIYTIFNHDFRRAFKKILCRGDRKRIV
smiles,measurement,setting,value
C=Cc1cccn1N(C)c1ccncc1,IC50,[1],5.9 µM
same,IC50,[2],8.8 µM
same,IC50,Rattus norvegicus,14 µM
same,Response,Mus musculus,33%
same,IC50,[3],0.95 µM
